Laboratory results: ChEMBL document CHEMBL6121060, “Discovery and Development of CFTR Modulators for the Treatment of Cystic Fibrosis” (J Med Chem, 2025)
≈ marks a conversion by molar mass, not a printed value.

Experiments:
[1] = target: T1, Cystic fibrosis transmembrane conductance regulator (Homo sapiens, UniProt P13569, F508DEL); assay: Activation of CFTR F508del mutant (unknown origin)
[2] = target: T1, Cystic fibrosis transmembrane conductance regulator; assay: Potentiation of CFTR F508del mutant (unknown origin)
[3] = Solubility of compound at pH 6.8 incubated for 12 hrs by HPLC analysis; assay type: physicochemical; details: buffer
[4] = Metabolic stability in rat liver microsomes assessed as intrinsic clearance; assay type: ADME, Microsome
[5] = AUC in rat at 3 mg/kg, po; details: in vivo
[6] = target: T2, Nuclear receptor subfamily 1 group I member 2 (Homo sapiens, UniProt O75469); assay: Activation of PXR (unknown origin) at 10 uM relative to rifampicin
T2 sequence (O75469 whole entry): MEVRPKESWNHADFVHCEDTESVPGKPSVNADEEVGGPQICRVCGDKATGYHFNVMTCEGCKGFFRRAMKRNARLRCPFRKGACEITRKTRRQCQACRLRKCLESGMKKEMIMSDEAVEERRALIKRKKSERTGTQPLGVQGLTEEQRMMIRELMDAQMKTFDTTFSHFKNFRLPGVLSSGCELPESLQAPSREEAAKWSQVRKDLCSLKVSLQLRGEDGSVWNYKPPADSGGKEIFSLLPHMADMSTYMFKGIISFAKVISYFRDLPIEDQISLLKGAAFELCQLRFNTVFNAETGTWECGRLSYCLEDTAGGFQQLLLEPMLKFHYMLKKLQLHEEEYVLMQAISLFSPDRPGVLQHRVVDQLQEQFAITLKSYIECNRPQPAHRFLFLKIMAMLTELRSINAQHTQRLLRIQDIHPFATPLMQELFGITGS

[7] = target: T1, Cystic fibrosis transmembrane conductance regulator; assay: Potentiation of CFTR F508del mutant (unknown origin) expressed in NIH3T3 cells; assay type: cell-based
[8] = Apparent permeability across apical to basolateral side in MDCK cells; assay type: ADME, cell-based, Canis lupus familiaris; details: dog
[9] = target: T3, PXR (nuclear receptor subfamily 1 group I member 2) (Homo sapiens, UniProt O75469); assay: Activation of PXR (unknown origin) at 10 uM relative to control; details: read-out: Activity
T3 sequence (O75469 whole entry): T2 sequence (O75469 whole entry)

[10] = Oral bioavailability in rat; assay type: ADME, organism-based; details: in vivo

T1 sequence (P13569 as listed by the source): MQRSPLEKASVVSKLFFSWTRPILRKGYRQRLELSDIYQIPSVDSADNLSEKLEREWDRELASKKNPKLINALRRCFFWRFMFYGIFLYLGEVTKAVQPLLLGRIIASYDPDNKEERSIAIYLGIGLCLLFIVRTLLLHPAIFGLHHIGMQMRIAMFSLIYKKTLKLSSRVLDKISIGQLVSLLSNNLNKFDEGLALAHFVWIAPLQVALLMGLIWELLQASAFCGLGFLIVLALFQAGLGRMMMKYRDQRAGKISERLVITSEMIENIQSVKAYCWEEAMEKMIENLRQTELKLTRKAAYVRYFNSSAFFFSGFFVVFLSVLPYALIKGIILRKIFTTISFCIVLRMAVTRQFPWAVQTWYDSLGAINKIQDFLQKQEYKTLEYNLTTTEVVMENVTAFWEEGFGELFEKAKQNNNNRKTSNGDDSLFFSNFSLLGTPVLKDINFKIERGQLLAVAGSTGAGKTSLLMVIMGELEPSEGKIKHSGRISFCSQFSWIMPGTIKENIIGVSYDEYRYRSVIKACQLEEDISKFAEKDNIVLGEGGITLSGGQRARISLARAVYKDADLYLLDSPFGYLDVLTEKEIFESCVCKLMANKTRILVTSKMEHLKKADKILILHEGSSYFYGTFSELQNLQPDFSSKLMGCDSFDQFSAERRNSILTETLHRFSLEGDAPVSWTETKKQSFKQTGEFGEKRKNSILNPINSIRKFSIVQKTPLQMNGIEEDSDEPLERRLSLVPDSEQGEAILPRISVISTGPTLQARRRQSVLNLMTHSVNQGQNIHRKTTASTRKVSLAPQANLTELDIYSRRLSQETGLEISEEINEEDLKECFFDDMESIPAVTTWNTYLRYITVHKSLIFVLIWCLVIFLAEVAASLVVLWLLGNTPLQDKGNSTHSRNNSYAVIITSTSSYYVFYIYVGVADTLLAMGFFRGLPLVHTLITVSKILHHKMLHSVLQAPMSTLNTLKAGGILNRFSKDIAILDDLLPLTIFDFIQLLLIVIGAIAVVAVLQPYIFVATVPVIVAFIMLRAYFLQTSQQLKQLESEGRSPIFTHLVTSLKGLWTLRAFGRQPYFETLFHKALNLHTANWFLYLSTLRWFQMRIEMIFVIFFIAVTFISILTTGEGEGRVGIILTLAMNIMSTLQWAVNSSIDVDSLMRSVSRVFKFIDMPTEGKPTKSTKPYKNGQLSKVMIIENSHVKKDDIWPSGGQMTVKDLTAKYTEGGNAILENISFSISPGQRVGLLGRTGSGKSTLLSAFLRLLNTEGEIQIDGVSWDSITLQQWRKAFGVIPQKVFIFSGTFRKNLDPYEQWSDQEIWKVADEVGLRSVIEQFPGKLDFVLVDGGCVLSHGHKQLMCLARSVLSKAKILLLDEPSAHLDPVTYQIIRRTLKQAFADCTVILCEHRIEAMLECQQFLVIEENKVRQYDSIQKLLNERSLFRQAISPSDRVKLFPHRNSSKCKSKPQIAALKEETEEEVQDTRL

| Structure (SMILES) | EC50 [1] [nM] | other results |
| --- | --- | --- |
| CC1(C)Cc2c(sc(NC(=O)c3ccccc3O)c2C(N)=O)C(C)(C)O1 | 15 |  |
| CC1(C)Cc2c(sc(NC(=O)[C@H](O)C(C)(C)C)c2C(N)=O)C(C)(C)O1 | 3 |  |
| CC1(C)Cc2c(sc(NC(=O)C3(CO)CC3)c2C(N)=O)C(C)(C)O1 | 2.7 |  |
| CC1(C)Cc2c(sc(NC(=O)[C@@H](O)C(C)(C)C)c2C(N)=O)C(C)(C)O1 | 127 |  |
| COC(=O)c1nc(-c2ccco2)c(C(F)(F)F)cc1N |  | EC50 [2]: 70 nM; solubility at 12 h [3]: 2 µg/mL (≈ 6.99 µM); CLint [4]: 351 µL/min/mg |
| CNC(=O)c1nc(Br)c(C(F)(F)F)cc1N |  | CLint [4]: 100 µL/min/mg |
| Nc1cc(C(F)(F)F)c(Br)nc1C(=O)NCCC(F)(F)F |  | solubility at 12 h [3]: 170 µg/mL (≈ 447 µM); CLint [4]: 55.8 µL/min/mg |
| C[C@@H]1CN(c2nc(-n3ccc(OCC4(C(F)(F)F)CCC4)n3)ccc2C(=O)NS(=O)(=O)c2ccccc2)C(C)(C)C1 | 40 | AUC [5]: 2200 ng·h/mL |
| C[C@@H]1CN(c2nc(-n3ccc(OCC4(C(F)(F)F)CC4)n3)ccc2C(=O)NS(=O)(=O)c2ccccc2)C(C)(C)C1 | 40 | AUC [5]: 14700 ng·h/mL; Activity [6]: 19% |
| C[C@@H]1CN(c2nc(-n3ccc(OCCC4(C(F)(F)F)CC4)n3)ccc2C(=O)NS(=O)(=O)c2cccc(F)c2)C(C)(C)C1 | 50 | AUC [5]: 2700 ng·h/mL |
| C[C@@H]1CN(c2nc(-n3ccc(OCC(C)(C)C)n3)ccc2C(=O)NS(=O)(=O)c2cccnc2N)C(C)(C)C1 | 60 | AUC [5]: 1200 ng·h/mL; Activity [6]: 2% |
| C[C@@H]1CN(c2nc(-n3ccc(OCC(O)C4(C(F)(F)F)CC4)n3)ccc2C(=O)NS(=O)(=O)c2ccccc2)C(C)(C)C1 (stereo partly drawn) | 240 |  |
| CCOc1cccc([C@H]2C[C@@]2(C(=O)NS(=O)(=O)c2cccc3nc(C)ccc23)c2cc(C)ccc2OC)n1 | 5 |  |
| CC(O)(c1nnc(-c2ncc(S(=O)(=O)c3ccc(OC(F)(F)F)cc3)cc2N)o1)C(F)(F)F (stereo not drawn) | 1.8 |  |
| Cc1nn(C)c(C)c1S(=O)(=O)NC(=O)c1ccc(-n2ccc(OCC(C)(C)C(F)(F)F)n2)nc1N1C[C@@H](C)CC1(C)C |  | EC50 [7]: 90 nM; Papp A→B [8]: 8.8 ×10⁻⁶ cm/s; activity at 10 µM [9]: 1% |
| CCOc1cccc([C@@H]2C[C@]2(C(=O)NS(=O)(=O)c2cccc3nc(C)ccc23)c2cc(C)ccc2OC)n1 | 90 |  |
| CCc1ccccc1-c1nc(NS(=O)(=O)c2cccc(N(CCCC(=O)O)C(C)C)n2)ccc1C(F)(F)F | 2 |  |
| CCOc1ccc(CC)cc1[C@@]1(C(=O)NS(=O)(=O)c2cccc3nc(C)ccc23)CCCO1 | 30 |  |
| COc1ccc(C)cc1[C@]1(C(=O)NS(=O)(=O)c2cccc3nc(C)ccc23)C[C@@H](c2ccccc2)CO1 | 30 |  |
| COc1ccc(Br)c2c1CCCC2C(=O)NS(=O)(=O)c1cccc2ncccc12 (stereo not drawn) | < 3000 |  |
| Cc1ccc(C2CCCCC2)c(OC2(C(=O)NS(=O)(=O)c3cccc(N4CCC(N)(C(F)(F)F)CC4)n3)CC2)c1 | 4 |  |
| Cc1ccc(C2CCCCC2)c(OC2(C(=O)NS(=O)(=O)c3cccc(N4CCOC[C@@H]4C)n3)CC2)c1 | 80 |  |
| Cc1nn(C)cc1S(=O)(=O)NC(=O)c1ccc(-n2ccc(OCC3(C(F)(F)F)CC3)n2)nc1N1C[C@@H](C)CC1(C)C |  | EC50 [7]: 220 nM; Papp A→B [8]: 7.1 ×10⁻⁶ cm/s; activity at 10 µM [9]: 4% |
| COc1ccc(C2CCC2)cc1C1(C(=O)NS(=O)(=O)c2cccc3ccccc23)CC1 | < 3000 |  |
| COc1ccc(Br)c2c1C(C(=O)NS(=O)(=O)c1cccc3ccccc13)CC2 (stereo not drawn) | < 3000 |  |
| COc1ccc(Br)c2c1CCCC2C(=O)NS(=O)(=O)c1cccc2ccccc12 (stereo not drawn) | < 3000 |  |
| CCc1ccccc1-c1nc(NS(=O)(=O)c2cccc(N(CC)CCCC(=O)O)n2)ccc1C(F)(F)F | 4 |  |

| Structure (SMILES) | EC50 [1] [nM] | other results |
| --- | --- | --- |
| Cc1ccc(-c2cccc(C(F)(F)F)c2)c(OC2(C(=O)NS(=O)(=O)c3cccc(N4CCC(N)(C(F)(F)F)CC4)n3)CC2)c1 | 80 |  |
| Cc1ccc(F)cc1-c1nc(NS(=O)(=O)c2cccc(N3CCC[C@@](C)(CC(=O)O)C3)n2)ccc1C(F)(F)F | 2 |  |
| COc1ccc(C2CCC2)c2c1C(C(=O)NS(=O)(=O)c1cccc3ccccc13)C2 (stereo not drawn) | < 3000 |  |
| CC(C)(CN1CCCCCc2ccccc2-c2nc(ccc2C(F)(F)F)NS(=O)(=O)c2cccc1n2)C(=O)O | 4 |  |
| Nc1cc(S(=O)(=O)c2ccc(C(F)(F)F)cc2)cnc1-c1nnc(CO)o1 | 1.6 |  |
| Nc1cc(S(=O)(=O)c2ccc(OC(F)(F)F)cc2)cnc1-c1nnc([C@@H](O)c2ccccc2)o1 | 1.1 |  |
| CC(C)(CO)CN1CCCCCc2ccccc2-c2nc(ccc2C(F)(F)F)NS(=O)(=O)c2cccc1n2 | 3 |  |
| CNC(=O)c1nc(-c2ccco2)c(C(F)(F)F)cc1N |  | EC50 [2]: 1860 nM; solubility at 12 h [3]: 40 µg/mL (≈ 140 µM); CLint [4]: 205 µL/min/mg |
| COC(=O)c1nc(I)c(C(F)(F)F)cc1N |  | EC50 [2]: 360 nM; solubility at 12 h [3]: 13 µg/mL (≈ 37.6 µM); CLint [4]: 342 µL/min/mg |
| Cc1nn(-c2ccc(F)cc2)c2nc(C(=O)NS(C)(=O)=O)cc(-c3ccc(N4CCOCC4)cc3)c12 | 1260 |  |
| Cc1nn(C)cc1S(=O)(=O)NC(=O)c1ccc(-n2ccc(OCC3(C(F)(F)F)CCC3)n2)nc1N1C[C@@H](C)CC1(C)C |  | EC50 [7]: 130 nM; Papp A→B [8]: 2.7 ×10⁻⁶ cm/s; bioavailability [10]: 66%; activity at 10 µM [9]: 3% |
| Cc1nn(C)cc1S(=O)(=O)NC(=O)c1ccc(-n2ccc(OCCC3(C(F)(F)F)CC3)n2)nc1N1C[C@@H](C)CC1(C)C |  | EC50 [7]: 130 nM; Papp A→B [8]: 11.7 ×10⁻⁶ cm/s; bioavailability [10]: 65%; activity at 10 µM [9]: 4% |
| CC(C)(CO)CN1CCCCCCc2ccccc2-c2nc(ccc2C(F)(F)F)NS(=O)(=O)c2cccc1n2 | 10 |  |
| Cc1ccccc1-c1nc(NS(=O)(=O)c2cccc(N3CCC[C@H](CC(=O)O)C3)n2)ccc1C(F)(F)F | 100 |  |
| CC(C)(CN1CCCCCCc2ccccc2-c2nc(ccc2C(F)(F)F)NS(=O)(=O)c2cccc1n2)C(=O)O | 80 |  |
| Cc1ccc(C2CCCCCC2)c(OC2(C(=O)NS(=O)(=O)c3cccc(N)n3)CC2)c1 | 2 |  |
| Nc1cc(S(=O)(=O)c2ccc(OC(F)(F)F)cc2)cnc1-c1nnc(C(O)C(F)(F)F)o1 (stereo not drawn) | 5.8 |  |
| Cc1c(S(=O)(=O)NC(=O)c2ccc(-n3ccc(OCC(C)(C)C(F)(F)F)n3)nc2N2C[C@@H](C)CC2(C)C)cnn1C |  | EC50 [7]: 170 nM; Papp A→B [8]: 3.8 ×10⁻⁶ cm/s; activity at 10 µM [9]: 3% |
| CCOc1ccc(CC)cc1[C@]1(C(=O)NS(=O)(=O)c2cccc3nc(C)ccc23)CCCO1 | > 300 |  |
| COc1ccc(C)cc1[C@]1(C(=O)NS(=O)(=O)c2cccc3nc(C)ccc23)C[C@@H]1c1cnc(C(C)C)cn1 | 30 |  |
| COc1ncc(C2CCC2)cc1C1(C(=O)NS(=O)(=O)c2cccc3c2CCCN3)CC1 | < 3000 |  |
| COc1ccc(C)cc1[C@]1(C(=O)NS(=O)(=O)c2cccc3nc(C)ccc23)C[C@@H]1c1cccc(C(F)(F)F)c1 (racemic) | 5 |  |
| C[C@@H]1CN(c2nc(-n3ccc(OCCC4(C(F)(F)F)CC4)n3)ccc2C(=O)NS(=O)(=O)c2ccccc2)C(C)(C)C1 [BAMOCAFTOR] | 30 | AUC [5]: 21000 ng·h/mL; Activity [6]: 3% |
| Cc1nn(C)cc1S(=O)(=O)NC(=O)c1ccc(-n2ccc(OCC(C)(C)C(F)(F)F)n2)nc1N1C[C@@H](C)CC1(C)C [ELEXACAFTOR] |  | EC50 [7]: 70 nM; Papp A→B [8]: 4.5 ×10⁻⁶ cm/s; bioavailability [10]: 83%; activity at 10 µM [9]: 2% |
| Nc1cc(S(=O)(=O)c2ccc(OC(F)(F)F)cc2)cnc1-c1nnc(CO)o1 [NAVOCAFTOR] | 5.6 |  |
| COc1ccc(C)cc1[C@@]1(C(=O)NS(=O)(=O)c2cccc3nc(C)ccc23)C[C@H](c2ccccc2)CO1 [RISELCAFTOR] | 10 |  |
